Laboratory results published in patent US20020115699A1, “Method for treating renal disease” (SmithKline Beecham p.l.c., priority 1994, published 2002).

Assays:
[1] = test system: Zucker fatty (fa/fa) rats; assay: Systolic blood pressure (tail cuff) in 9 month Zucker rat study; type: in vivo; settings: for SYSTOLIC BLOOD PRESSURE: Zucker fatty rats
Procedure: A second study was performed in Zucker rats over a period of 9 months to investigate the longitudinal effects of the drug on systolic blood pressure and various indices of renal function, two of which are exemplified here. In one arm of the study, the drug was given in the diet (50 μmole/kg of diet) from aged 6-7 weeks in Zucker fatty (fa/fa) rats, whilst in a second arm of the study, drug treatment as above was delayed until proteinuria had become established after 4 months, indicative of structural damage already present in the kidneys. A third group of Zucker fatty rats and a further group of lean rats were given diet alone throughout the period of study.
After dosing with the test compound, at monthly intervals measurements were made of systolic blood pressure, urinary total protein and urinary N-acetyl β-D-glucosaminidase (NAG) activity.
Rats were enclosed in custom-built restrainers and placed on a shelf in a warming cabinet, whose temperature was controlled at approximately 30° C. An inflatable cuff with integral pulse sensor was attached to the tail of each rat. After warming for 20-30 min the tail cuff was inflated and deflated automatically and a measurement of systolic blood pressure made using an IITC Non-Invasive Blood Pressure Monitor. This cycle was repeated several times for each rat until stable values of blood pressure were obtained.
In the tables below, results are given as mean values for the group ±the standard error of the mean. Results have been analysed by one way ANOVA and significant differences from the Zucker fatty rat control group have been indicated by an asterisk.

[2] = test system: Zucker fatty (fa/fa) rats; assay: Urinary total protein (Bio-Rad dye-binding assay, 24 h urine) in 9 month Zucker rat study; type: in vivo; settings: for URINARY PROTEIN CONCENTRATION: Zucker fatty rats, mean ± SEM
Procedure: A second study was performed in Zucker rats over a period of 9 months to investigate the longitudinal effects of the drug on systolic blood pressure and various indices of renal function, two of which are exemplified here. […] A third group of Zucker fatty rats and a further group of lean rats were given diet alone throughout the period of study. After dosing with the test compound, at monthly intervals measurements were made of systolic blood pressure, urinary total protein and urinary N-acetyl β-D-glucosaminidase (NAG) activity. Twenty-four hour urine collections, made in metabolism cages, were aliquoted and frozen at −70° C. until required for assay. Urinary protein concentration was measured using the Bio-Rad protein assay as modified for use in a 96-well microtitre plate. The assay is a dye-binding assay based on the differential colour change of a dye in response to various concentrations of protein (Bradford, Anal. Biochem., 72, 248, 1976). After a period of incubation with Dye Reagent, diluted urine samples are read at an optical density of 595 nm using a Molecular Devices multiplate reader.

[3] = Zucker fatty (fa/fa) rats treated from age 6-7 weeks for 9 months via the diet

SMILES: CN(CCOc1ccc(CC2SC(=O)NC2=O)cc1)c1ccccn1 (centres unmarked) [Test Compound, 5-[4-[2-(N-methyl-N-(2-pyridyl)amino)ethoxy]benzyl]thiazolidine-2,4-dione]
- development of hypertension [1, 3]: prevented the development of hypertension
- SYSTOLIC BLOOD PRESSURE ([1]; 50 μmol/kg of diet from age 6-7 weeks (prior to renal complications), treatment duration 0 months, mean ± SEM): 102 ± 3 mm Hg
- SYSTOLIC BLOOD PRESSURE ([1]; 50 μmol/kg of diet from age 6-7 weeks (prior to renal complications), treatment duration 1 month, mean ± SEM): 110 ± 3 mm Hg
- SYSTOLIC BLOOD PRESSURE ([1]; 50 μmol/kg of diet from age 6-7 weeks (prior to renal complications), treatment duration 2 months, mean ± SEM): 122 ± 4 mm Hg
- SYSTOLIC BLOOD PRESSURE ([1]; 50 μmol/kg of diet from age 6-7 weeks (prior to renal complications), treatment duration 3 months, mean ± SEM): 122 ± 4 mm Hg
- SYSTOLIC BLOOD PRESSURE ([1]; 50 μmol/kg of diet from age 6-7 weeks (prior to renal complications), treatment duration 4 months, mean ± SEM): 126 ± 6 mm Hg
- SYSTOLIC BLOOD PRESSURE ([1]; 50 μmol/kg of diet from age 6-7 weeks (prior to renal complications), treatment duration 5 months, mean ± SEM): 131 ± 4 mm Hg
- SYSTOLIC BLOOD PRESSURE ([1]; 50 μmol/kg of diet from age 6-7 weeks (prior to renal complications), treatment duration 6 months, mean ± SEM): 128 ± 3 mm Hg
- SYSTOLIC BLOOD PRESSURE ([1]; 50 μmol/kg of diet from age 6-7 weeks (prior to renal complications), treatment duration 7 months, mean ± SEM): 125 ± 6 mm Hg
- SYSTOLIC BLOOD PRESSURE ([1]; 50 μmol/kg of diet from age 6-7 weeks (prior to renal complications), treatment duration 8 months, mean ± SEM): 133 ± 5 mm Hg
- SYSTOLIC BLOOD PRESSURE ([1]; 50 μmol/kg of diet from age 6-7 weeks (prior to renal complications), treatment duration 9 months, mean ± SEM): 143 ± 4 mm Hg
- SYSTOLIC BLOOD PRESSURE ([1]; 50 μmol/kg of diet started once renal complications established (after 4 months), treatment duration 0 months, mean ± SEM): 146 ± 4 mm Hg
- SYSTOLIC BLOOD PRESSURE ([1]; 50 μmol/kg of diet started once renal complications established (after 4 months), treatment duration 1 month, mean ± SEM): 140 ± 5 mm Hg
- SYSTOLIC BLOOD PRESSURE ([1]; 50 μmol/kg of diet started once renal complications established (after 4 months), treatment duration 2 months, mean ± SEM): 134 ± 3 mm Hg
- SYSTOLIC BLOOD PRESSURE ([1]; 50 μmol/kg of diet started once renal complications established (after 4 months), treatment duration 3 months, mean ± SEM): 144 ± 3 mm Hg
- SYSTOLIC BLOOD PRESSURE ([1]; 50 μmol/kg of diet started once renal complications established (after 4 months), treatment duration 4 months, mean ± SEM): 139 ± 3 mm Hg
- SYSTOLIC BLOOD PRESSURE ([1]; 50 μmol/kg of diet started once renal complications established (after 4 months), treatment duration 5 months, mean ± SEM): 146 ± 6 mm Hg
- SYSTOLIC BLOOD PRESSURE ([1]; 50 μmol/kg of diet started once renal complications established (after 4 months), treatment duration −1 month (before start of drug), mean ± SEM): 141 ± 6 mm Hg
- SYSTOLIC BLOOD PRESSURE ([1]; 50 μmol/kg of diet started once renal complications established (after 4 months), treatment duration −2 months (before start of drug), mean ± SEM): 138 ± 7 mm Hg
- SYSTOLIC BLOOD PRESSURE ([1]; 50 μmol/kg of diet started once renal complications established (after 4 months), treatment duration −3 months (before start of drug), mean ± SEM): 123 ± 5 mm Hg
- SYSTOLIC BLOOD PRESSURE ([1]; 50 μmol/kg of diet started once renal complications established (after 4 months), treatment duration −4 months (before start of drug), mean ± SEM): 106 ± 3 mm Hg
- SYSTOLIC BLOOD PRESSURE ([1]; drug treatment commenced after proteinuria had become established): prevented from rising further
- rate of development of proteinuria [2, 3]: markedly reduced
- URINARY PROTEIN CONCENTRATION ([2]; 50 μmol/kg of diet from age 6-7 weeks (prior to renal complications), treatment duration 0 months): 226 ± 15 µg/h
- URINARY PROTEIN CONCENTRATION ([2]; 50 μmol/kg of diet from age 6-7 weeks (prior to renal complications), treatment duration 1 month): 373 ± 22 µg/h
- URINARY PROTEIN CONCENTRATION ([2]; 50 μmol/kg of diet from age 6-7 weeks (prior to renal complications), treatment duration 2 months): 402 ± 22 µg/h
- URINARY PROTEIN CONCENTRATION ([2]; 50 μmol/kg of diet from age 6-7 weeks (prior to renal complications), treatment duration 3 months): 221 ± 32 µg/h
- URINARY PROTEIN CONCENTRATION ([2]; 50 μmol/kg of diet from age 6-7 weeks (prior to renal complications), treatment duration 4 months): 376 ± 54 µg/h
- URINARY PROTEIN CONCENTRATION ([2]; 50 μmol/kg of diet from age 6-7 weeks (prior to renal complications), treatment duration 5 months): 1573 ± 105 µg/h
- URINARY PROTEIN CONCENTRATION ([2]; 50 μmol/kg of diet from age 6-7 weeks (prior to renal complications), treatment duration 6 months): 1585 ± 147 µg/h
- URINARY PROTEIN CONCENTRATION ([2]; 50 μmol/kg of diet from age 6-7 weeks (prior to renal complications), treatment duration 7 months): 2124 ± 293 µg/h
- URINARY PROTEIN CONCENTRATION ([2]; 50 μmol/kg of diet from age 6-7 weeks (prior to renal complications), treatment duration 8 months): 2664 ± 370 µg/h
- URINARY PROTEIN CONCENTRATION ([2]; 50 μmol/kg of diet from age 6-7 weeks (prior to renal complications), treatment duration 9 months): 3152 ± 515 µg/h
- URINARY PROTEIN CONCENTRATION ([2]; 50 μmol/kg of diet started once renal complications established (after 4 months), treatment duration 0 months): 3520 ± 905 µg/h
- URINARY PROTEIN CONCENTRATION ([2]; 50 μmol/kg of diet started once renal complications established (after 4 months), treatment duration 1 month): 3690 ± 386 µg/h
